{"source": "patent US6613734B2", "about": "“Peptides-containing liposomal surfactants” (The Scripps Research Institute, priority 1988, dated 2003)", "key": {"[1]": {"assay": "observation whether peptide/solvent admixture formed a solution or a suspension", "assay_type": "physicochemical", "protocol": "Each polypeptide was admixed with the indicated solvent at a concentration of 2.5 mg of polypeptide per ml of solvent. […] Those admixtures forming a suspension were further admixed by water bath sonication for 10 seconds to form a very fine suspension, sufficient for pipetting using glass pipettes."}, "[2]": {"assay": "pulsating bubble technique (\"bubble assay\" of Enhorning, Enhorning Surfactometer)", "assay_type": "physicochemical", "conditions": "peptide 10% by weight of PL, 37° C., negative pressure, mean of 3; for Pressure Gradient 15″: 15 seconds; for Pressure Gradient 1′: 1 minute; for Pressure Gradient 5′: 5 minutes", "protocol": "Measurements of surface pressure across an air-liquid interface (expressed in negative cm of H2O pressure) at minimal (γmin) bubble radius were determined at various times using the pulsating bubble technique described by Enhorning, J. Appl. Physiol. 43: 198-203 (1977).\nBriefly, the Enhorning Surfactometer (Surfactometer International, Toronto, Ontario) measures the pressure gradient (ΔP) across a liquid-air interface of a bubble that pulsates at a rate of 20 cycles/min between a maximal (0.55 mm) and minimal (0.4 mm) radius. The bubble, formed in a 37° C., water-enclosed, 20-μl sample chamber, is monitored through a microscopic optic while the pressure changes are recorded on a strip chart recorder calibrated for 0 and −2 cm H2O.\nEach of the surfactants identified in Table 5 was assayed for surfactant activity as evidenced by their ability to reduce surface tension in vitro using the “bubble assay” of Enhorning as described above.\nAfter admixture with solvent, each peptide was admixed with phospholipids (PL), DPPC:PG, 3:1, in chloroform in a glass tube so that the amount of polypeptide added equaled one-tenth (10% by. weight) of the amount of PL added, to form a surfactant according to either method A, B or C.\nEach of the surfactants was then assayed for surfactant activity as evidenced by their ability to reduce surface tension in vitro in the bubble assay performed as described above. The pressure gradient (ΔP) is a measure of surfactant activity in the polypeptide-PL third admixture which was determined using an Enhorning Surfactometer as described above. Measurements were obtained at time points of 15 seconds (15″), 1 minute (1′) and 5 minutes (5′) and are expressed as a mean of three independent measurements of the indicated polypeptide-PL admixture."}}, "data": [{"sequence": "RLLLLCLLLRLLLLCLLLR [RCL-1]", "values": [{"measurement": "Admixture Formed", "setting": "[1]; 2.5 mg of polypeptide per ml of solvent, solvent 79% chloroform 21% methanol", "result": "suspension"}, {"measurement": "Pressure Gradient 15″", "setting": "[2]; PL (DPPC:PG 3:1) 10 mg/ml", "result": "0.50 cm of H2O"}, {"measurement": "Pressure Gradient 1′", "setting": "[2]; PL (DPPC:PG 3:1) 10 mg/ml", "result": "0.59 cm of H2O"}, {"measurement": "Pressure Gradient 5′", "setting": "[2]; PL (DPPC:PG 3:1) 10 mg/ml", "result": "0.06 cm of H2O"}]}, {"sequence": "CQCLAERYSVILLDTLLGRMLPQLVCRLVLR [p46-76]", "values": [{"measurement": "Admixture Formed", "setting": "[1]; 2.5 mg of polypeptide per ml of solvent, solvent 64% chloroform 36% methanol", "result": "solution"}, {"measurement": "Pressure Gradient 15″", "setting": "[2]; PL (DPPC:PG 3:1) 10 mg/ml", "result": "0.90 cm of H2O"}, {"measurement": "Pressure Gradient 1′", "setting": "[2]; PL (DPPC:PG 3:1) 10 mg/ml", "result": "0.80 cm of H2O"}, {"measurement": "Pressure Gradient 5′", "setting": "[2]; PL (DPPC:PG 3:1) 10 mg/ml", "result": "0.62 cm of H2O"}]}, {"sequence": "SVILLDTLLGRMLPQLVCRLVLR [p54-76]", "values": [{"measurement": "Admixture Formed", "setting": "[1]; 2.5 mg of polypeptide per ml of solvent, solvent 71% chloroform 24% methanol", "result": "suspension"}, {"measurement": "Pressure Gradient 15″", "setting": "[2]; PL (DPPC:PG 3:1) 10 mg/ml", "result": "0.92 cm of H2O"}, {"measurement": "Pressure Gradient 1′", "setting": "[2]; PL (DPPC:PG 3:1) 10 mg/ml", "result": "0.82 cm of H2O"}, {"measurement": "Pressure Gradient 5′", "setting": "[2]; PL (DPPC:PG 3:1) 10 mg/ml", "result": "0.23 cm of H2O"}]}, {"sequence": "SVILLDTLLGRMLPQLVCR [p54-72]", "values": [{"measurement": "Admixture Formed", "setting": "[1]; 2.5 mg of polypeptide per ml of solvent, solvent 76% chloroform 24% methanol", "result": "suspension"}, {"measurement": "Pressure Gradient 15″", "setting": "[2]; PL (DPPC:PG 3:1) 10 mg/ml", "result": "1.28 cm of H2O"}, {"measurement": "Pressure Gradient 1′", "setting": "[2]; PL (DPPC:PG 3:1) 10 mg/ml", "result": "0.92 cm of H2O"}, {"measurement": "Pressure Gradient 5′", "setting": "[2]; PL (DPPC:PG 3:1) 10 mg/ml", "result": "0.38 cm of H2O"}]}, {"sequence": "ERYSVILLDTLLGRMLPQLVCRLVLRCSMDD [p51-81]", "values": [{"measurement": "Admixture Formed", "setting": "[1]; 2.5 mg of polypeptide per ml of solvent, solvent 50% chloroform 50% methanol", "result": "suspension"}, {"measurement": "Pressure Gradient 15″", "setting": "[2]; PL (DPPC:PG 3:1) 10 mg/ml", "result": "0.94 cm of H2O"}, {"measurement": "Pressure Gradient 1′", "setting": "[2]; PL (DPPC:PG 3:1) 10 mg/ml", "result": "0.86 cm of H2O"}, {"measurement": "Pressure Gradient 5′", "setting": "[2]; PL (DPPC:PG 3:1) 10 mg/ml", "result": "0.64 cm of H2O"}]}, {"sequence": "RLLLLCLLLRLLLLCLLLRLL [RCL-2]", "values": [{"measurement": "Admixture Formed", "setting": "[1]; 2.5 mg of polypeptide per ml of solvent, solvent 67% chloroform 33% methanol", "result": "suspention"}, {"measurement": "Pressure Gradient 15″", "setting": "[2]; PL (DPPC:PG 3:1) 10 mg/ml", "result": "0.00 cm of H2O"}, {"measurement": "Pressure Gradient 1′", "setting": "[2]; PL (DPPC:PG 3:1) 10 mg/ml", "result": "0.00 cm of H2O"}, {"measurement": "Pressure Gradient 5′", "setting": "[2]; PL (DPPC:PG 3:1) 10 mg/ml", "result": "0.00 cm of H2O"}]}, {"sequence": "CRALIKRIQAMIPKG [p11-25]", "values": [{"measurement": "Admixture Formed", "setting": "[1]; 2.5 μg of peptide per μl of solvent, solvent H2O", "result": "solution"}]}, {"sequence": "LLGRMLPQLVCRLVL [p61-75]", "values": [{"measurement": "Admixture Formed", "setting": "[1]; 2.5 μg of peptide per μl of solvent, solvent methanol", "result": "suspension"}]}, {"sequence": "DTLLGRMLPQLVCRLVLRCSMDD [p59-81]", "values": [{"measurement": "Admixture Formed", "setting": "[1]; 2.5 mg of polypeptide per ml of solvent, solvent 68% chloroform 32% methanol", "result": "solution"}, {"measurement": "Pressure Gradient 15″", "setting": "[2]; PL (DPPC:PG 3:1) 4 mg/ml", "result": "1.08 cm of H2O"}, {"measurement": "Pressure Gradient 1′", "setting": "[2]; PL (DPPC:PG 3:1) 4 mg/ml", "result": "1.02 cm of H2O"}, {"measurement": "Pressure Gradient 5′", "setting": "[2]; PL (DPPC:PG 3:1) 4 mg/ml", "result": "0.75 cm of H2O"}]}, {"sequence": "RRLLLLLLLRRLLLLLLLRRL [RL7]", "values": [{"measurement": "Admixture Formed", "setting": "[1]; 2.5 mg of polypeptide per ml of solvent, solvent 49% chloroform 51% methanol", "result": "solution"}, {"measurement": "Pressure Gradient 15″", "setting": "[2]; PL (DPPC:PG 3:1) 4 mg/ml", "result": "1.65 cm of H2O"}, {"measurement": "Pressure Gradient 1′", "setting": "[2]; PL (DPPC:PG 3:1) 4 mg/ml", "result": "1.25 cm of H2O"}, {"measurement": "Pressure Gradient 5′", "setting": "[2]; PL (DPPC:PG 3:1) 4 mg/ml", "result": "1.00 cm of H2O"}]}, {"sequence": "LPQLVCRLVLRCSMDD [p66-81]", "values": [{"measurement": "Admixture Formed", "setting": "[1]; 2.5 μg of peptide per μl of solvent, solvent methanol:H2O", "result": "suspension"}, {"measurement": "Admixture Formed", "setting": "[1]; 2.5 mg of polypeptide per ml of solvent, solvent 40% DMF 60% chloroform", "result": "suspension"}, {"measurement": "Pressure Gradient 15″", "setting": "[2]; PL (DPPC:PG 3:1) 4 mg/ml", "result": "1.22 cm of H2O"}, {"measurement": "Pressure Gradient 1′", "setting": "[2]; PL (DPPC:PG 3:1) 4 mg/ml", "result": "1.11 cm of H2O"}, {"measurement": "Pressure Gradient 5′", "setting": "[2]; PL (DPPC:PG 3:1) 4 mg/ml", "result": "0.84 cm of H2O"}]}]}
